Consider six compounds from patent US20230059785A1, “METHODS FOR ENHANCING T CELLS USING VENETOCLAX” (University Health Network, priority 2020, published 2023).

The test system of data set [1] is OCI-AML2. Put plainly: DNT cells pre-treated with Bcl-2 family protein inhibitors, used as effectors against OCI-AML2. As to conditions: overnight pre-treatment, different concentrations. The text has this: FIG. 5. […] (A) DNT cells were pre-treated with different concentrations of Obatoclax, ABT-737, or Venetoclax overnight and were used as effector cells against OCI-AML2. […] (C) Expression of Bcl-xL and Bcl-2 on ex vivo expanded DNT cells from three donors (UPN38, UPN108, and UPN134) and AML cell lines, OCI-AML2, TEX, NB4, and K562 determined by Western blot. Tubulin was used as a loading control.
As Bcl-2 is well-known to protect cells from apoptosis, one would expect that inhibiting this pathway would lead to increased T cell apoptosis and dampened T cell function.

Another data set has as its system DNT cells. Briefly: Glycolysis, glycolytic capacity and oxygen consumption rate of DNT cells. The format is cell-based, human.
In data set [2] the test system is OCI-AML2. Put plainly: Time course of Venetoclax treatment of DNT and Tconv cells, cytotoxicity against OCI-AML2. Type of data set: cell-based, human. As to conditions: DNTs and Tconv cells; Venetoclax 100 nM and 400 nM; 4 hours up to 3 days. On the procedure: (§1) Venetoclax rapidly and directly increases cytotoxicity of T cells against AML. DNT (top panels) and Tconv cells (bottom panels) untreated or treated with Venetoclax (100 nM and 400 nM) for 4 h, 18 h, and 3 days. Subsequently, their cytotoxicity against OCI-AML2 was determined. Data represent the mean ±SEM of results from four different donor T cells. FIG. 4(C). DNT and Tconv cells untreated or treated with Venetoclax (100 nM or 400 nM) for 4 hours. Subsequently, their viability was determined. Data represent the mean ±SEM of results from four different donor T cells.
(§2) To elucidate the underlying mechanism by which Ven-mediates increased cytotoxicity of T cells, the expression of T cell activation markers and effector molecules on DNT cells with or without Ven treatment was compared. […] Thus, Venetoclax directly activates effector T cells to increase their cytotoxicity without depleting naïve or inhibitory T cell subsets.

The next data set relates to DNT and Tconv cells. Put plainly: Viability of DNT and Tconv cells after Venetoclax treatment. The format is cell-based, human. Particulars: Venetoclax 100 nM or 400 nM, 4 hours. The procedure:
as §1, §2

For data set [3], the system named is autologous and allogeneic PBMCs. Briefly: Cytotoxicity of DNT cells against normal blood cells. The format is cell-based, human. Particulars: PBMCs from healthy donors. The text has this: To determine if Ven increases the cytotoxicity of DNT cells against normal blood cells, autologous and allogeneic PBMCs from healthy donors were used as targets.
Data set [4] deals with human AML cell line, OCI-AML2. Briefly: Drug screening assay: DNT cells pretreated with 269 approved drugs, then used as effectors against AML. Type of data set: cell-based. Particulars: DNT cells treated at 400 nM overnight, washed, cultured with AML cells two hours; library of 269 drugs. On the procedure:
FIG. 1. Drug screening assay identifies Venetoclax as the top hit for enhancing cytotoxicity of T cells against AML. Schematic diagram of drug screening assay done to identify clinically approved drugs that can be used in combination with DNT cells to yield in synergistic anti-tumor activity. DNT cells were treated with 269 different clinically approved drugs at 400 nM for overnight. Subsequently, compound-treated cells were washed and then cultured with AML cells for two-hours.
To identify molecules that increase the potency of T cell mediated cytotoxicity against AML, ex vivo expanded DNT cells were used as a surrogate for anti-leukemic T cells and pretreated with a compound library of 269 drugs approved for various clinical uses. Subsequently, compound-treated cells were used as effectors against human AML cell line, OCI-AML2.

Data set [5] has as its system AML cell lines, OCI-AML2, OCI-AML3, and KG1a. Put plainly: In vitro killing assay with Ven-pretreated Tconv cells against AML cell lines. Type of data set: cell-based, human. Particulars: Ven 25-400 nM. On the procedure:
FIG. 4(A). Venetoclax enhances anti-leukemic activity of CD4^+ or CD8^+ conventional T cells. Ex vivo expanded Tconv cells untreated or treated with various concentrations of Ven (25 nM, 50 nM, 100 nM, 200 nM, or 400 nM), were used as effector cells against AML cell lines, OCI-AML2, OCI-AML3, and KG1a. The result shown represents four biological replicates. FIG. 4(B).
While treating DNT cells with Ven to enhance their anti-leukemic activity may be beneficial for DNT-therapy, experiments were performed to determine whether Ven has an effect on the anti-leukemic activity of CD4^+ or CD8^+ conventional T (Tconv) cells as Tconv cells are more wildly used as cancer immunotherapy clinically. To this end, polyclonally activated Tconv cells were pre-treated with different concentrations of Ven prior to their co-culture with […]

Data set [6] shares this test system. Put plainly: In vitro killing assay with Ven-pretreated DNT cells against AML cell lines. Type of data set: cell-based, human. Particulars: Ven 50, 100, 200, 400 nM overnight. The procedure:
(§3) FIG. 2. Venetoclax enhances T cell mediated cytotoxicity against AML in vitro. (A) To validate the finding from the drug screening, in vitro killing assay was conducted with DNT cells untreated or pretreated with various concentrations of Ven (50 nM, 100 nM, 200 nM, 400 nM) for overnight against AML cell lines, OCI-AML2, OCI-AML3, and KG1a. The data is representative of four biological replicates. (B) In vitro cytotoxicity assay using DNT cells pretreated with 400 nM Ven as effectors against primary AML patient samples (n=17). (C) To determine the activity of DNT cells with or without Ven-treatment against leukemia initiating cells, untreated AML or AML treated with untreated or Ven-treated DNT cells were seeded at 10^3 cells per ml in a methylcellulose-based colony forming assay, and the number of colonies formed were determined 10 days after. The experiment was done with OCI-AML2 and KG1a, as well as patient samples 140372, 100857, 110162 and 141065. […] The experiment was done using DNT cells from two different donors (UPN119 and UPN38). (E) Correlation between the susceptibility of AML to DNT cells and the degree of increase in DNT cell-mediated cytotoxicity by Ven treatment. […] Subsequently, they were cultured with OCI-AML2 at 1:1, 2:1, or 4:1 DNT:AML ratio, and the viability of AML cells were measured by Annexin V staining and flow cytometry. […]

In data set [7] the test system is primary AML patient samples. The format is cell-based, human. On the procedure: as §3, with “UPN38).” for “UPN38). (E) Correlation between the susceptibility of AML to DNT cells and the degree of increase in DNT cell-mediated cytotoxicity by Ven treatment.”
FIG. 11. […] The increase in DNT-mediated cytotoxicity by Venetoclax treatment was determined against each patient sample type. […]

For data set [8], the system named is DNTs. Briefly: Viability of DNTs treated with Venetoclax (Annexin V staining and flow cytometry). Type of data set: cell-based, human. Particulars: Venetoclax 18 h. The procedure: FIG. 10. […] (A) Viability of DNTs and OCI-AML2 cells treated with 400 nM Venetoclax for 18 hours was determined by Annexin V staining and flow cytometry. (B and C) DNTs were treated with increasing concentrations of Venetoclax for 18 h. Subsequently, their viability (B) and cytotoxicity (C) against OCI-AML2 and two primary AML cells (090765 and 110162) were determined. ANOVA was used for statistics. ****p<0.0001.
For orientation: A flow cytometer gives signals particle by particle.

For data set [9], the system named is DNTs. Put plainly: Effect of other ROS-inducing reagents on DNT ROS level and viability. Particulars: 18 hours; cytarabine 0-3 μM, antimycin 0-250 nM, daunorubicin 0-10 μM. The procedure: (§4) FIG. 15. Effect of other known ROS-inducing reagents on DNT viability, ROS level, and cytotoxicity against AML. DNTs were treated with increasing concentrations of cytarabine (0-3 μM), antimycin (0-250 nM) or daunorubicin (0-10 μM) for 18 hours. Subsequently, the level of cellar ROS in the DNTs (A), DNT viability (B), and cytotoxicity against OCI-AML2 (C) were determined.
(§5) To determine the effect of other ROS-inducing agents on DNT-mediated cytotoxicity, DNTs were treated with increasing concentrations of cytarabine, daunorubicin, and antimycin.

Data set [10] has as its system DNTs treated with 400 nM Ven. Put plainly: Co-treatment of DNT cells with Venetoclax and ROS scavenger NAC. The format is cell-based, human.
Procedure: (C) To determine the functional relevance of increased ROS level in Ven treated DNTs, ROS level in DNTs treated with 400 nM Ven in the presence of various concentrations of ROS-scavenger, N-acetylcysteine (NAC), and these cells were used as effector cells against AML during an in vitro killing assay. The result shown is representative of three independent experiments. […] (H-K) DNT (H and I) or Tconv cells (J and K) were treated with 0 nM, 100 nM, or 400 nM Venetoclax for 4 hours, 18 hours and 2 days. Cells were stained with CellROX (H and J) or MitoSOX (I and K). MFI of cellular or mitochondrial (mt) ROS was measured by flow cytometry. Data represent the mean ±SEM of results from four different donor T cells. (L) DNTs treated with 400 nM Venetoclax with or without 2 mM NAC for 18 hours. […] MFI of CD25 and CD69 were measured by flow cytometry. Experiments were done in triplicates, and the data shown is representative of two independent experiments done using DNTs from two donors. (M) DNT cells were treated with 400 nM Venetoclax for 18 hours.
Data set [11] deals with OCI-AML2. Put plainly: Effect of other ROS-inducing reagents on DNT cytotoxicity against OCI-AML2. As to conditions: 18 hours; cytarabine 0-3 μM, antimycin 0-250 nM, daunorubicin 0-10 μM. On the procedure:
as §4, §5

`COC1=CC(c2cc3ccccc3[nH]2)=N/C1=C\c1[nH]c(C)cc1C` [Obatoclax]: the “effect on DNT cells and their cytotoxicity against OCI-AML2” value with OCI-AML2 [1] is listed as “induced DNT cell death or inhibited their cytotoxicity”.
Consider `CC1(C)CCC(CN2CCN(c3ccc(C(=O)NS(=O)(=O)c4ccc(NCC5CCOCC5)c([N+](=O)[O-])c4)c(Oc4cnc5[nH]ccc5c4)c3)CC2)=C(c2ccc(Cl)cc2)C1` [Venetoclax], for which the “glycolysis, glycolytic capacity, and basal oxygen consumption rate of DNT cells” value in the data set with DNT cells is listed as “no significant effect”. Further, the “T cell cytotoxicity against AML after different treatment times” value in the data set with OCI-AML2 [2] was “increased T cell cytotoxicity against AML”. The T cell viability result with DNT and Tconv cells is “without changing the T cell viability”. Moreover, the “killing of autologous and allogeneic PBMCs by Ven-treated DNT cells” value in data set [3] was “insignificant degree of killing”. Moreover, in data set [4], the “change in cytotoxicity mediated by DNT cells against AML cells relative to untreated DNT cells” value was “increased the cytotoxicity of DNT cells the most”. In addition, the “cytotoxicity of Ven-pretreated Tconv cells against AML cell lines” value in [5] was “significant enhancement of cytotoxicity of Tconv cells”. In addition, the “cytotoxicity of Ven-pretreated DNT cells against AML cell lines” value in data set [6] was “increased cytotoxicity of DNT cells against three different AML cell lines, AML2-OCI, AML3-OCI, and KG1a, in a dose-dependent manner”. In data set [7], the “correlation between susceptibility of AML to DNT cells and degree of increase in DNT cell-mediated cytotoxicity by Ven treatment” value is “clear inverse correlation”. Also, the “viability of DNTs” value with DNTs [8] is recorded as “without reducing the viability of the DNTs”.
As for `Nc1ccn([C@@H]2O[C@H](CO)[C@@H](O)[C@@H]2O)c(=O)n1` [cytarabine], the “level of cellular ROS in DNTs” value with DNTs [9] is “Increased ROS levels”.
As to `CC(=O)N[C@@H](CS)C(=O)O` [NAC, N-acetylcysteine], in data set [10] (400 nM Venetoclax with 2 mM NAC, 18 hours), the “upregulation of activation markers (CD25 and CD69) by Venetoclax” value is “blocked the upregulation of activation markers”. In addition, in data set [10] (co-treatment with 400 nM Ven), the “DNT cell-mediated cytotoxicity against AML” value is given as “abrogated the effect of Venetoclax on DNT cell-mediated cytotoxicity against AML” and the “cellular ROS level in Venetoclax-treated DNT cells” value is “reduced the cellular ROS level”.
Consider `COc1cccc2c1C(=O)c1c(O)c3c(c(O)c1C2=O)C[C@@](O)(C(C)=O)C[C@@H]3O[C@H]1C[C@H](N)[C@H](O)[C@H](C)O1` [daunorubicin], for which the “level of cellular ROS in DNTs” value in the data set on DNTs [9] was “lower ROS level”.
In the case of antimycin, in the data set with DNTs [9], the DNT viability result is given as “no to little loss of viability” and the “level of cellular ROS in DNTs” value is listed as “Increased ROS levels”. Moreover, the “DNT-mediated cytotoxicity against OCI-AML2” value in the data set on OCI-AML2 [11] is listed as “did not enhance the cytotoxicity of DNTs”.
